Measured values published in ChEMBL document CHEMBL1151484, “Preparation and anti-HIV activity of N-3 amino substituted thymidine nucleoside analogs” (Bioorg Med Chem Lett, 1992).

Experiments:
CCRF-CEM [1] = assay: In vitro anti -HIV activity of compound determined against the LAV Bru infected CEM cells; Highly cytotoxic at low dose; format: functional, Homo sapiens
[2] = Tested for bone marrow cell toxicity expressed as burst forming unit for erythrocyte at a compound concentration of 100 mM in experiment-2; format: cell-based; settings: human
[3] = Tested for bone marrow cell toxicity expressed as burst forming unit for erythrocyte at a compound concentration of 3.6/3 mM in experiment-1; format: cell-based; settings: human
[4] = Tested for bone marrow cell toxicity expressed as colony forming unit of granulocyte -macrophage at a compound concentration of 0.36 mM in experiment-1; format: cell-based; settings: human, 360 µM
[5] = Tested for bone marrow cell toxicity expressed as burst forming unit for erythrocyte at a compound concentration of 1 mM in experiment-2; format: cell-based; settings: human, 1000 µM
Mus musculus [6] = assay: Effect of compound on Friend Complex Murine Leukemia Virus (F-MuLV) induced splenomegaly, expressed as percent inhibition at a dose of 4 mg/kg; format: functional
[7] = Tested for bone marrow cell toxicity expressed as burst forming unit for erythrocyte at a compound concentration of 10 mM in experiment-2; format: cell-based; settings: human
[8] = Tested for bone marrow cell toxicity expressed as colony forming unit of granulocyte -macrophage at a compound concentration of 1 mM in experiment-2; format: cell-based; settings: human, 1000 µM
[9] = Tested for bone marrow cell toxicity expressed as burst forming unit for erythrocyte at a compound concentration of 0.036 mM in experiment-1; format: cell-based; settings: human, 36 µM
[10] = Tested for bone marrow cell toxicity expressed as colony forming unit of granulocyte -macrophage at a compound concentration of 360 mM in experiment-1; format: cell-based; settings: human
Mus musculus [11] = assay: Effect of compound on Friend Complex Murine Leukemia Virus (F-MuLV) induced splenomegaly, expressed as percent inhibition at a dose of 12 mg/kg; format: functional
[12] = Tested for bone marrow cell toxicity expressed as colony forming unit of granulocyte -macrophage at a compound concentration of 300 mM in experiment-1; format: cell-based; settings: human
[13] = Tested for bone marrow cell toxicity expressed as burst forming unit for erythrocyte at a compound concentration of 36/30 mM in experiment-1; format: cell-based; settings: human
[14] = Tested for bone marrow cell toxicity expressed as colony forming unit of granulocyte -macrophage at a compound concentration of 3.6/30 mM in experiment-1; format: cell-based; settings: human
Mus musculus [15] = assay: Effect of compound on Friend Complex Murine Leukemia Virus (F-MuLV) induced splenomegaly, expressed as percent inhibition at a dose of 40 mg/kg; format: functional
[16] = Tested for bone marrow cell toxicity expressed as colony forming unit of granulocyte -macrophage at a compound concentration of 10 mM in experiment-2; format: cell-based; settings: human
[17] = Tested for bone marrow cell toxicity expressed as burst forming unit for erythrocyte at a compound concentration of 360 mM in experiment-1; format: cell-based; settings: human
[18] = Tested for bone marrow cell toxicity expressed as colony forming unit of granulocyte -macrophage at a compound concentration of 100 mM in experiment-2; format: cell-based; settings: human
[19] = Tested for bone marrow cell toxicity expressed as colony forming unit of granulocyte -macrophage at a compound concentration of 36/30 mM in experiment-2; format: cell-based; settings: human
[20] = Tested for bone marrow cell toxicity expressed as colony forming unit of granulocyte -macrophage at a compound concentration of 36/30 mM in experiment-1; format: cell-based; settings: human
Mus musculus [21] = assay: Effect of compound on Friend Complex Murine Leukemia Virus (F-MuLV) induced splenomegaly, spleen weights at a dose of 40 mg/kg; format: functional
Mus musculus [22] = assay: Effect of compound on Friend Complex Murine Leukemia Virus (F-MuLV) induced splenomegaly, spleen weights at a dose of 12 mg/kg; format: functional
[23] = Tested for bone marrow cell toxicity expressed as burst forming unit for erythrocyte at a compound concentration of 3.6/3 mM in experiment-2; format: cell-based; settings: human
[24] = Tested for bone marrow cell toxicity expressed as burst forming unit for erythrocyte at a compound concentration of 0.036 mM in experiment-2; format: cell-based; settings: human, 36 µM
[25] = Tested for bone marrow cell toxicity expressed as burst forming unit for erythrocyte at a compound concentration of 36/30 mM in experiment-2; format: cell-based; settings: human
Mus musculus [26] = assay: Effect of compound on Friend Complex Murine Leukemia Virus (F-MuLV) induced splenomegaly, spleen weights at a dose of 4 mg/kg; format: functional
[27] = Tested for bone marrow cell toxicity expressed as burst forming unit for erythrocyte at a compound concentration of 0.36 mM in experiment-1; format: cell-based; settings: human, 360 µM
[28] = Tested for bone marrow cell toxicity expressed as colony forming unit of granulocyte -macrophage at a compound concentration of 3.6/30 mM in experiment-2; format: cell-based; settings: human
[29] = Tested for bone marrow cell toxicity expressed as colony forming unit of granulocyte -macrophage at a compound concentration of 0.036 mM in experiment-1; format: cell-based; settings: human, 36 µM
CCRF-CEM [30] = assay: In vitro anti -HIV activity of compound determined against the LAV Bru strain infected CEM cells at dose up to 100 uM; format: functional, Homo sapiens
[31] = Tested for bone marrow cell toxicity expressed as colony forming unit of granulocyte -macrophage at a compound concentration of 0.3 mM in experiment-2; format: cell-based; settings: human, 300 µM
[32] = Tested for bone marrow cell toxicity expressed as colony forming unit of granulocyte -macrophage at a compound concentration of 3 mM in experiment-2; format: cell-based; settings: human, 3000 µM
[33] = Tested for bone marrow cell toxicity expressed as colony forming unit of granulocyte -macrophage at a compound concentration of 30 mM in experiment-2; format: cell-based; settings: human
[34] = Tested for bone marrow cell toxicity expressed as burst forming unit for erythrocyte at a compound concentration of 10 mM in experiment-1; format: cell-based; settings: human
[35] = Tested for bone marrow cell toxicity expressed as burst forming unit for erythrocyte at a compound concentration of 1 mM in experiment-1; format: cell-based; settings: human, 1000 µM
[36] = Tested for bone marrow cell toxicity expressed as burst forming unit for erythrocyte at a compound concentration of 3 mM in experiment-2; format: cell-based; settings: human, 3000 µM
[37] = Tested for bone marrow cell toxicity expressed as burst forming unit for erythrocyte at a compound concentration of 30 mM in experiment-1; format: cell-based; settings: human
[38] = Tested for bone marrow cell toxicity expressed as colony forming unit of granulocyte -macrophage at a compound concentration of 10 mM in experiment-1; format: cell-based; settings: human
[39] = Tested for bone marrow cell toxicity expressed as colony forming unit of granulocyte -macrophage at a compound concentration of 100 mM in experiment-1; format: cell-based; settings: human
[40] = Tested for bone marrow cell toxicity expressed as burst forming unit for erythrocyte at a compound concentration of 100 mM in experiment-1; format: cell-based; settings: human
[41] = Tested for bone marrow cell toxicity expressed as burst forming unit for erythrocyte at a compound concentration of 3 mM in experiment-1; format: cell-based; settings: human, 3000 µM
[42] = Tested for bone marrow cell toxicity expressed as burst forming unit for erythrocyte at a compound concentration of 30 mM in experiment-2; format: cell-based; settings: human
[43] = Tested for bone marrow cell toxicity expressed as colony forming unit of granulocyte -macrophage at a compound concentration of 1 mM in experiment-1; format: cell-based; settings: human, 1000 µM
[44] = Tested for bone marrow cell toxicity expressed as burst forming unit for erythrocyte at a compound concentration of 0.3 mM in experiment-2; format: cell-based; settings: human, 300 µM
[45] = Tested for bone marrow cell toxicity expressed as colony forming unit of granulocyte -macrophage at a compound concentration of 3 mM in experiment-1; format: cell-based; settings: human, 3000 µM

Structure (SMILES): Cc1cn([C@H]2C[C@H](F)[C@@H](CO)O2)c(=O)[nH]c1=O [ALOVUDINE]
- Activity (CCRF-CEM [1]): 0.1 µM

Structure (SMILES): Cc1cn(C2CC(N=[N+]=[N-])C(CO)O2)c(=O)n(N)c1=O (stereo unspecified)
- BFU [2]: 158
- BFU [3]: 140
- CFU [4]: 31.3
- BFU [5]: 249
- inhibition in vivo at 4 mg/kg (Mus musculus [6]): 28%
- BFU [7]: 170
- CFU [8]: 12.3
- BFU [9]: 94
- CFU [10]: 0.7
- inhibition in vivo at 12 mg/kg (Mus musculus [11]): 46%
- CFU [12]: 0.3
- BFU [13]: 98
- CFU [14]: 31.3
- inhibition in vivo at 40 mg/kg (Mus musculus [15]): 55%
- CFU [16]: 10
- BFU [17]: 111
- CFU [18]: 9.3
- CFU [19]: 11.3
- CFU [20]: 28.3
- Spleen weight (Mus musculus [21]): 607 mg
- Spleen weight (Mus musculus [22]): 715 mg
- BFU [23]: 218
- BFU [24]: 10
- BFU [25]: 198
- Spleen weight (Mus musculus [26]): 907 mg
- BFU [27]: 142
- CFU [28]: 14
- CFU [29]: 48.3

Structure (SMILES): Cc1cn(C2C=CC(CO)O2)c(=O)n(N)c1=O (stereo unspecified)
- Activity (CCRF-CEM [30]): 40 µM

Structure (SMILES): Cc1cn([C@H]2C[C@H](N=[N+]=[N-])[C@@H](CO)O2)c(=O)[nH]c1=O [ZIDOVUDINE]
- CFU [31]: 10.7
- CFU [32]: 4.5
- CFU [33]: 0
- BFU [5]: 132
- inhibition in vivo at 4 mg/kg (Mus musculus [6]): 46%
- BFU [7]: 79
- CFU [8]: 4.7
- BFU [34]: 76
- BFU [35]: 120
- BFU [36]: 79
- inhibition in vivo at 12 mg/kg (Mus musculus [11]): 50%
- BFU [37]: 46
- inhibition in vivo at 40 mg/kg (Mus musculus [15]): 78%
- CFU [16]: 1
- CFU [38]: 4.3
- CFU [39]: 1
- Spleen weight (Mus musculus [21]): 357 mg
- BFU [40]: 4
- Spleen weight (Mus musculus [22]): 669 mg
- BFU [41]: 88
- BFU [42]: 59
- CFU [43]: 33.4
- Spleen weight (Mus musculus [26]): 706 mg
- BFU [44]: 143
- CFU [45]: 18.7

Structure (SMILES): Cc1cn(C2CC(F)C(CO)O2)c(=O)n(N)c1=O (stereo unspecified)
- Activity (CCRF-CEM [1]): 0.1 µM
